For the experiment, the system named is RSV subgenomic replicon 395 HeLa. The experiment is described as follows: RSV replicon assay (Renilla luciferase, 395 HeLa replicon cells). The class given is cell-based. The conditions noted are these: human respiratory syncytial virus, 168 h. The source says: The RSV subgenomic replicon 395 HeLa was licensed from Apath (Brooklyn, N.Y.) and was originally developed by Dr. Mark Meeples of Center for Vaccines & Immunity, the Research Institute at Nationwide Children's Hospital in Columbus, Ohio. To generate subgenomic RSV replicon, three glycoprotein genes, those for SH, G, and F, from a full-length recombinant GFP-expressing (rg) RSV antigenomic cDNA were deleted. In their place, a blasticidin S deaminase (bsd) gene was inserted. Through multiple steps, the RSV replicon was established in HeLa cells. The 395 HeLa cells were cultured in Dulbecco's Modified Eagle Medium (DMEM) containing 4500 mg/L D-glucose, L-glutamine, and 110 mg/L sodium pyruvate (Invitrogen, Cat. #11995-040). The medium was further supplemented with 10% (v/v) fetal bovine serum (FBS) (Mediatech, Cat. #35-010-CV), 1% (v/v) penicillin/streptomycin (Mediatech, Cat. #30-002-CI), and 10 μg/mL of Blasticidin (BSD) (Invivogen, Cat. code ant-b1-1). Cells were maintained at 37° C. in a humidified 5% CO2 atmosphere.
Determination of 50% inhibitory concentration […], 90% inhibitory concentration (C90) and 50% cytotoxic concentration […] in RSV replicon cells were performed by the following procedure. […]
The Renilla Luciferase Assay System (Promega, Cat. #E2820) was used to measure anti-RSV replicon activity. […] Luminescence was recorded using a Perkin Elmer multilabel counter Victor3V.

pEC50: −log10 of the molar value.

Usually pEC50 stands for −log10 of the EC50, conventionally taken in molar units. A high value points to a small EC50.

Take `[2H]C([2H])(OC(=O)C(C)C)[C@@]1(CCl)O[C@@H](n2ccc(N)nc2=O)[C@H](F)[C@@H]1OC(=O)C(C)C` [Compound 31]: the pEC50 was more than 6.00.

These data come from US20160045528A1, “COMBINATION THERAPY FOR TREATING A PARAMYXOVIRUS” (priority 2014, published 2016).
